Assay [1] has as its system soybean rust (Phakopsora pacchyrhizi Sydow). The assay is described as follows: Greenhouse pot test, soybean rust. The assay is classed as in vivo. The procedure: (§1) Test method: each of the test compounds in Table 1 was dispensed to 5 wt % emulsifiable concentrate (hereinafter referred to as 5% EC). The greenhouse pot test was used in each experiment, and the effective concentrations of each compound were illustrated in Table 1.
Soybean rust: two-leaf stage potted soybean seedling with uniform growth was selected and made foliar spray treatment with 5% EC, the blank control sprayed with clean water was additionally arranged, three replicates were carried out. After 24 h, the leaves of the host plants were inoculated with sporangial suspensions of the fungi soybean rust (Phakopsora pacchyrhizi Sydow), the plants were stored in humidity chamber (temperature 20-25° C., relative humidity>95%) and then transferred to greenhouse (25±1° C.) 8-16 h after infection. After 7 days, the screening results were investigated according to the disease incidence condition of blank control.
(§2) The investigation method: “Guidelines for the field efficacy trials of pesticides” was adopted as the grading standard, and the control effect in a unit of % was calculated based on the disease index. Disease index=Σ(number of diseased leaves at each grade×relative grade value)×100/(total number of leaves×9); Control effect (%)=(disease index of control−disease index of treated)×100/disease index of control;
(§3) The compounds provided by the present disclosure and some control compounds were tested by the same methods in the Test example 1, except that the effective concentrations of the compounds in this Test example are shown in Table 2.

The test system of assay [2] is wheat powdery mildew (Erysiphe graminis). The assay is described as follows: Greenhouse pot test, wheat powdery mildew. Type of assay: in vivo.
From the text: as §1
Wheat powdery mildew: two-leaf stage potted wheat seedling with uniform growth was selected and made foliar spray treatment with 5% EC, the blank control sprayed with clean water was additionally arranged, three replicates were carried out. After 24 h, the leaves of the host plants were inoculated by shake-down method with sporangial suspensions of the fungi wheat powdery mildew (Erysiphe graminis), the plants were stored in a greenhouse (25±1° C.). After 7 days, the screening results were investigated according to the disease incidence condition of blank control.
as §2, §3

The next assay relates to cucumber powdery mildew. The assay is described as follows: Greenhouse pot test, cucumber powdery mildew. To be noted: greenhouse pot. Type of assay: in vivo. The procedure:
as §1
Cucumber powdery mildew: cucumber seedling in a true leaf period with uniform growth was selected, and dried in the shade for 24 h after spray treatment. Fresh cucumber powdery mildew spores on the cucumber leaves were collected and washed, and filtered through a double gauze to prepare a spores suspension with concentration of about 100,000/mL, then spray inoculation was applied. The test materials inoculated were moved into a greenhouse (lighting 21-23° C.), after 8 days, the grading investigation was carried out according to the disease incidence condition of blank control, and the control effect in a unit of % was calculated according to disease index.
as §2, §3

In another assay the test system is wheat powdery mildew. The assay is described as follows: Field trial, wheat powdery mildew. The assay is classed as in vivo, Erysiphe graminis. To be noted: 100 mg/L, sprayed once. The procedure:
II. The Wheat Powdery Mildew Test Method:
(§4) Spray method: Stein and leaf spraying (Applicator: Xinkangda lithium battery electric sprayer).
Test crops: wheat (cultivars: Liaochun 10)
(§5) The test was carried out in Shenyang, the test field was loam with rich organic matters and normal management of fertilizer and water, and no other pesticide was applied during the test.
The arrangement of the test plot was random block permutation; the area of the test plot: 15 m^2; repeat times: 3 times; spray time and frequency: Sep. 17, 2018, once. Spray dosage: each treatment was repeated 3 times, the total water consumption was 8 L. No other pesticide was applied during the test.
The incidence of disease spots in each plot was investigated by diagonal selecting 4 samples/plot and 20 plants/samples, and the first leaf below the flag leaf of each plant was investigated.
(§6) The grading standard of crop disease was as follows:
(§7) Grade 0: no leaf-spot area;
(§8) Grade 1: the ratio of leaf-spot area to leaf area is less than 5%;
(§9) Grade 3: the ratio of leaf-spot area to leaf area is between 6-25%;
(§10) Grade 5: the ratio of leaf-spot area to leaf area is between 26-50%;
(§11) Grade 7: the ratio of leaf-spot area to leaf area is between 51-75%;
(§12) Grade 9: the ratio of leaf-spot area to leaf area is between 76-100%;
(§13) According to the relevant content of the “Guidelines for the field efficacy trials of pesticides of the People's Republic of China (PRC)”, the disease index was calculated according to the grading standard, and the control effect in a unit of % was calculated based on the disease index, and the test data of significance analysis was performed by using DPS evaluation system (DMRT).

The next assay relates to soybean rust. The assay is described as follows: Field trial, soybean rust. The assay is classed as in vivo, Phakopsora pacchyrhizi Sydow. To be noted: sprayed 2 times. On the procedure:
III. The Soybean Rust Test Method:
as §4
Test crops: soybean (cultivars: Glycine max(L) Merr)
as §5
The arrangement of the test plot was random block permutation; the area of the test plot: 25 m^2; repeat times: 3 times; spray time and frequency: 2 times on Aug. 11, 2018 and Aug. 21, 2018 respectively. Spray dosage: each treatment was repeated 3 times, the total water consumption was 8 L. No other pesticide was applied during the test. […] 15-20 days after the second spray treatment, the control effect was investigated.
The incidence of disease spots in each plot was investigated by diagonal selecting 5 samples/plot and 20 plants/samples, 10 leaves/plant was surveyed.
as §6, §7, §8, §9, §10, §11, §12, §13

The test system of assay [3] is corn rust (Puccinia sorghi). The assay is described as follows: Greenhouse pot test, corn rust. The assay is classed as in vivo. On the procedure:
as §1
Corn rust: two-three leaf stage potted corn seedling with uniform growth was selected and made foliar spray treatment with 5% EC, the blank control sprayed with clean water was additionally arranged, three replicates were carried out. After 24 h, the leaves of the host plants were inoculated with sporangial suspensions of the fungi corn rust (Puccinia sorghi), the plants were stored in humidity chamber (temperature: lighting 25° C., dark 20° C., relative humidity 95-100%) and then transferred to greenhouse (25±1° C.) 24 h after infection. After 7 days, the screening results were investigated according to the disease incidence condition of blank control.
as §2, §3

In assay [4] the test system is rice sheath blight fungi (Rhizoctonia solami). The assay is described as follows: Greenhouse pot test, rice sheath blight. Type of assay: in vivo. The procedure:
as §3
In addition, the test method for rice sheath blight as following steps:
The potted rice seedling with uniform growth was selected, and dried in the shade for 24 h after spray treatment, then inoculated 3 blocks of 0.25 cm^2 rice sheath blight fungi (Rhizoctonia solami) at the base of seedling by clamp inoculation bacterium block method. The test materials inoculated were moved into greenhouse (temperature: lighting 28° C., dark 25° C., relative humidity 95%), after 7 days, investigate 5 leaves of per block treatment, the grading investigation was carried out according to the disease incidence condition of sheaths and leaves of rice, “Guidelines for the field efficacy trials of pesticides” was adopted as the grading standard, the disease index was calculated according to the grading standard, and the control effect in a unit of % was calculated according to disease index.

Turning to `Cn1cc(C(=O)Nc2cccc3c2[C@@H]2CC[C@H]3C2=C(Cl)Cl)c(C(F)F)n1` (racemic) [Benzovindiflupyr], the “Control effect (%) Soybean rust” value in assay [1] (0.5 mg/L) is 95%; in assay [1] (1 mg/L), 98%; in assay [1] (1.5625 mg/L), 100%; in assay [1] (3.1250 mg/L), 100%. For the same molecule, the “Control effect (%) Wheat powdery mildew” value in assay [2] (1.5625 mg/L) was 50%; in assay [2] (3.1250 mg/L), 70%; with wheat powdery mildew it was 95%. In addition, the “Control effect (%) Cucumber powdery mildew” value in the assay with cucumber powdery mildew (1.5625 mg/L) is 20%; with cucumber powdery mildew (6.25 mg/L), 80%; in the assay on cucumber powdery mildew (25 mg/L), 100%; in the assay on cucumber powdery mildew (100 mg/L) it was 100%. For the same molecule, the “Control effect (%)” value in the assay with soybean rust (dosage 50 mg/L) is listed as 91.46%; with soybean rust (dosage 75 mg/L), 94.51%; in the assay with soybean rust (dosage 100 mg/L), 97.15%. The “Control effect (%) Corn rust” value in assay [3] (1.5625 mg/L) is 95%; in assay [3] (3.1250 mg/L), 98%. Further, the “Control effect (%) Rice sheath blight” value in assay [4] (0.5 mg/L) worked out at 30%; in assay [4] (1 mg/L), 40%; in assay [4] (1.5625 mg/L), 55%; in assay [4] (3.1250 mg/L), 65%.
As to `CO/C=C(/C(=O)OC)c1ccccc1Oc1cc(Oc2ccccc2C#N)ncn1` [Azoxystrobin], the “Control effect (%) Cucumber powdery mildew” value with cucumber powdery mildew (100 mg/L) is 0%; in the assay with cucumber powdery mildew (400 mg/L), 30%. Also, in the assay on soybean rust (dosage 50 mg/L), the “Control effect (%)” value amounted to 84.62%.
In the case of `Cn1cc(C(=O)Nc2ccccc2Oc2ccc(C(F)(F)F)cc2I)c(C(F)F)n1` [Compound 4], the pest or weed control at 1.5625 µg/mL in assay [1] (Glycine max, 168 h, 1.5625 mg/L, read-out: Control effect (%) Soybean rust) is 98%; in assay [2] (Blumeria graminis, 168 h, 1.5625 mg/L, read-out: Control effect (%) Wheat powdery mildew) it was 30%; in assay [3] (Puccinia sorghi, 168 h, 1.5625 mg/L, read-out: Control effect (%) Corn rust) it was 50%. The pest or weed control at 3.125 µg/mL in assay [1] (Glycine max, 168 h, 3.1250 mg/L, read-out: Control effect (%) Soybean rust) came to 100%; in assay [2] (Blumeria graminis, 168 h, 3.1250 mg/L, read-out: Control effect (%) Wheat powdery mildew), 70%; in assay [3] (Puccinia sorghi, 168 h, 3.1250 mg/L, read-out: Control effect (%) Corn rust), 90%. Besides, the pest or weed control at 6.25 µg/mL was 100% in assay [1] (Glycine max, 168 h, 6.25 mg/L, read-out: Control effect (%) Soybean rust); 10% in assay [2] (Blumeria graminis, 168 h, 6.25 mg/L, read-out: Control effect (%) Wheat powdery mildew); 98% in assay [3] (Puccinia sorghi, 168 h, 6.25 mg/L, read-out: Control effect (%) Corn rust). In addition, the pest or weed control at 25 µg/mL in assay [1] (Glycine max, 168 h, 25 mg/L, read-out: Control effect (%) Soybean rust) turned out to be 100%; in assay [2] (Blumeria graminis, 168 h, 25 mg/L, read-out: Control effect (%) Wheat powdery mildew) it was 25%; in assay [3] (Puccinia sorghi, 168 h, 25 mg/L, read-out: Control effect (%) Corn rust) it was 100%. For the same molecule, the pest or weed control at 100 µg/mL in assay [1] (Glycine max, 168 h, 100 mg/L, read-out: Control effect (%) Soybean rust) was found to be 100%; in assay [2] (Blumeria graminis, 168 h, 100 mg/L, read-out: Control effect (%) Wheat powdery mildew) it was 60%; in assay [3] (Puccinia sorghi, 168 h, 100 mg/L, read-out: Control effect (%) Corn rust), 100%. Also, the “Control effect (%)” value in the assay on soybean rust (dosage 50 mg/L) was 80.14%; in the assay on soybean rust (dosage 75 mg/L) it was 85.62%; with soybean rust (dosage 100 mg/L), 93.11%.
On to `OC(Cc1ccccc1Cl)(Cn1nc[nH]c1=S)C1(Cl)CC1` (centres unmarked) [Prothioconazole], for which the pest or weed control at 0.5 µg/mL in assay [1] (Glycine max, 168 h, 0.5 mg/L, read-out: Control effect (%) Soybean rust) turned out to be 95%. For the same molecule, the pest or weed control at 1 µg/mL in assay [1] (Glycine max, 168 h, 1 mg/L, read-out: Control effect (%) Soybean rust) turned out to be 100%; in assay [2] (Blumeria graminis, 168 h, 1 mg/L, read-out: Control effect (%) Wheat powdery mildew), 30%; in the assay with cucumber powdery mildew (Cucumis sativus, 192 h, 1 mg/L, read-out: Control effect (%) Cucumber powdery mildew), 75%. The pest or weed control at 2 µg/mL in assay [1] (Glycine max, 168 h, 2 mg/L, read-out: Control effect (%) Soybean rust) amounted to 100%; in assay [2] (Blumeria graminis, 168 h, 2 mg/L, read-out: Control effect (%) Wheat powdery mildew), 50%; in the assay with cucumber powdery mildew (Cucumis sativus, 192 h, 2 mg/L, read-out: Control effect (%) Cucumber powdery mildew), 80%. In addition, the pest or weed control at 4 µg/mL in assay [1] (Glycine max, 168 h, 4 mg/L, read-out: Control effect (%) Soybean rust) was 100%; in assay [2] (Blumeria graminis, 168 h, 4 mg/L, read-out: Control effect (%) Wheat powdery mildew), 70%; in the assay on cucumber powdery mildew (Cucumis sativus, 192 h, 4 mg/L, read-out: Control effect (%) Cucumber powdery mildew) it was 90%. Besides, the pest or weed control at 6.25 µg/mL in the assay on cucumber powdery mildew (Cucumis sativus, 192 h, 6.25 mg/L, read-out: Control effect (%) Cucumber powdery mildew) was 85%. The pest or weed control at 25 µg/mL with cucumber powdery mildew (Cucumis sativus, 192 h, 25 mg/L, read-out: Control effect (%) Cucumber powdery mildew) was found to be 98%. In addition, the pest or weed control at 100 µg/mL with cucumber powdery mildew (Cucumis sativus, 192 h, 100 mg/L, read-out: Control effect (%) Cucumber powdery mildew) stood at 100%. Also, the “Control effect (%) Wheat powdery mildew” value with wheat powdery mildew is listed as 93%. Besides, the “Control effect (%)” value in the assay on soybean rust (dosage 50 mg/L) came out at 91.15%.
